Measured values: patent US20230255953A1, “USE OF ROLUPERIDONE IN PREVENTING RELAPSE IN SCHIZOPHRENIA PATIENTS” (Minerva Neurosciences, Inc., priority 2022, published 2023)

What was measured:
[1] = molecular target: serotoninergic 5-HT2A (Homo sapiens, UniProt P28223); settings: background statement; cited from earlier work
[2] = tested on: patients with negative symptoms of schizophrenia; experiment: Study #2 (MIN-101C07) Phase 3: PANSS-derived scores (NSFS, total, subscales, Marder factors); type: in vivo, human; set-up: key to Change from Baseline LS Mean: NSFS (ITT) / Change from Baseline LS Mean: NSFS (mITT): NSFS total ranges 7 to 49; higher = more severe; settings: for Change from Baseline LS Mean: Marder's Anxiety/Depression Factor Score / Change from Baseline LS Mean: Marder's Disorganized Thought Factor Score / Change from Baseline LS Mean: Marder's Positive Symptoms Factor Score / Change from Baseline LS Mean: Marder's Uncontrolled Hostility/Excitement Factor Score / Change from Baseline LS Mean: NSFS (ITT) / Change from Baseline LS Mean: NSFS Emotional Experience Score / Change from Baseline LS Mean: NSFS Emotional Expression Score / Change from Baseline LS Mean: PANSS General Psychopathology Subscale / Change from Baseline LS Mean: PANSS Negative Symptoms Subscale / Change from Baseline LS Mean: PANSS Positive Symptoms Subscale / Change from Baseline LS Mean: PANSS Total Score / Effect Size (Cohen's d) vs Placebo: Marder's Anxiety/Depression Factor Score / Effect Size (Cohen's d) vs Placebo: Marder's Disorganized Thought Factor Score / Effect Size (Cohen's d) vs Placebo: Marder's Positive Symptoms Factor Score / Effect Size (Cohen's d) vs Placebo: Marder's Uncontrolled Hostility/Excitement Factor Score / Effect Size (Cohen's d) vs Placebo: NSFS (ITT) / Effect Size (Cohen's d) vs Placebo: NSFS Emotional Experience Score / Effect Size (Cohen's d) vs Placebo: NSFS Emotional Expression Score / Effect Size (Cohen's d) vs Placebo: PANSS General Psychopathology Subscale / Effect Size (Cohen's d) vs Placebo: PANSS Negative Symptoms Subscale / Effect Size (Cohen's d) vs Placebo: PANSS Positive Symptoms Subscale / Effect Size (Cohen's d) vs Placebo: PANSS Total Score / Effect size, change from Baseline in NSFS to Week 12: ITT; for Effect size, change from Baseline in NSFS to Week 12: 64 mg
Description: “PANSS”, as used herein, refers to the positive and negative syndrome scale, which is used by physicians and clinicians to measure the severity of the symptoms in a schizophrenia patient. The scale is divided into three parts, a positive scale, which provides a “PANSS positive subscore”, a negative scale, which provides a “PANSS negative subscore”, and general psychopathology scale. The sum of these three parts provides a PANSS total score, which ranges from 30 to 210 (where higher scores indicate more severe symptoms). (Kay, S. R., et al. “The positive and negative syndrome scale (PANSS) for schizophrenia,” Schizophr Bulletin, 13(2), 261-276 (1987)).
As used herein, PANSS Marder's negative symptoms factor score (“NSFS”), refers to selection of seven of the PANSS items used by physicians and clinicians to measure the severity of the negative symptoms in a schizophrenia patient. (See Tables 5A and 5B.) The NSFS total score ranges from 7 to 49. (Marder, S. R. et al. “The effects of risperidone on the five dimensions of schizophrenia derived by factor analysis: combined results of the North American trials,” J Clin Psychiatry. 1997; 58:538-46.)
The PANSS was designed to be used in patients with schizophrenia to measure the overall severity of schizophrenic symptoms. The scale has been validated in different cultures and languages and is reliable and acceptable to regulatory health authorities as a primary scale to determine efficacy of intervention in schizophrenia. The name refers to the 2 types of symptoms in schizophrenia, as defined by the American Psychiatric Association: positive symptoms, which refer to an excess or distortion of normal functions (e.g., hallucinations and delusions), and negative symptoms, which represent a diminution or loss of normal functions.
The patient is rated from 1 to 7 on 30 different symptoms based on the interview as well as reports of family members or primary care hospital workers. The original PANSS included 3 groups of symptoms and subscale scores Positive, Negative, and General Psychopathology. Since the inception of PANSS, investigators have proposed additional grouping (structures) of PANSS such as the Marder structure (Marder, S. R. et al. “Issues and perspectives in designing clinical trials for negative symptoms in schizophrenia: consensus statements,” Schizophrenia Bulletin Open. 2020; 1(1). doi:10.1093/schizbullopen/sgz001) and the White structure (White, L. et al. “Empirical assessment of the factorial structure of clinical symptoms in schizophrenia”. Psychopathology. 1997; 30263-274).
The PANSS was assessed at the time points described in Table 4.
The PANSS-derived endpoints used in these studies and the integrated analyses are described in Table 5A and a summary of the individual PANSS items used by physicians and clinicians to measure the severity of the symptoms in a schizophrenia patient is provided in Table 5B. The scale is divided into three parts, a positive scale, which provides a “PANSS positive subscore”, a negative scale, which provides a “PANSS negative subscore”, and general psychopathology scale. The sum of these three parts provides a PANSS total score, which ranges from 30 to 210 (where higher scores indicate more severe symptoms). (See Kay, S. R., et al. “The positive and negative syndrome scale (PANSS) for schizophrenia,” Schizophr Bulletin, 13(2), 261-276 (1987) and Gopal, S., et al. “Improvement of Negative Symptoms in Schizophrenia with Paliperidone Palmitate 1-Month and 3-Month Long-Acting Injectables: Results from a Phase 3 Non-Inferiority Study” Neuropsychiatric Disease and Treatment, 681-690, DOI: 10.2147/NDT.5226296, both of which are incorporated by reference.)
Study #2 (also referred to as “MIN101C07”) was a Phase 3, randomized, DB, placebo-controlled, parallel-group 12-week study to evaluate the efficacy and safety of Roluperidone in patients ≥18 years to ≤55 years with negative symptoms of schizophrenia, followed by a 40-week OL extension. […]

Chain of serotoninergic 5-HT2A (P28223 whole entry): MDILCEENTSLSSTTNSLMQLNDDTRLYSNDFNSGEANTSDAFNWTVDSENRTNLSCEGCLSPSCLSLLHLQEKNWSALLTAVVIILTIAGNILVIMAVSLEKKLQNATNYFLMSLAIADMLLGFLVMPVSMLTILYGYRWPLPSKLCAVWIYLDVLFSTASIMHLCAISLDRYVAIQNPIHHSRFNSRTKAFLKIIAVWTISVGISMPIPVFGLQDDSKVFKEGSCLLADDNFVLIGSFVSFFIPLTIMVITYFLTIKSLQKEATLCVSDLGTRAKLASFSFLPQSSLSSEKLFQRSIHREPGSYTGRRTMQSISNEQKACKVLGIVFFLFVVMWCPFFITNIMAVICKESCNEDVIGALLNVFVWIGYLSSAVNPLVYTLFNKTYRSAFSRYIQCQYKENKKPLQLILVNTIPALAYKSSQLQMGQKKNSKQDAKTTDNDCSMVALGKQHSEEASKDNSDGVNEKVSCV

## 1H-Isoindol-1-one,2-[ [1-[2-(4-fluorophenyl)-2-oxoethyl]-4-piperidinyl]methyl]-2,3-dihydro-, hydrochloride, hydrate (1:1:2) [Roluperidone]
[1]
  Antagonistic activity: antagonistic activities
[2]; 32 mg QD, Week 12 DB
  Effect Size (Cohen's w) vs Placebo: 20% reduction in NSFS responders: 0.05
  Effect Size (Cohen's w) vs Placebo: 30% reduction in NSFS responders: 0.04
  Number of Patients with 20% reduction in NSFS at Week 12: 32/116
  Number of Patients with 30% reduction in NSFS at Week 12: 14/116
  Patients with 20% reduction in NSFS at Week 12 (%): (28%)
  Patients with 30% reduction in NSFS at Week 12 (%): (12%)
  Change from Baseline LS Mean: Marder's Anxiety/Depression Factor Score: −0.6
  Change from Baseline LS Mean: Marder's Disorganized Thought Factor Score: −1.6
  Change from Baseline LS Mean: Marder's Positive Symptoms Factor Score: −1.3
  Change from Baseline LS Mean: Marder's Uncontrolled Hostility/Excitement Factor Score: 0.3
  Change from Baseline LS Mean: NSFS (ITT): −4.0
  Change from Baseline LS Mean: NSFS Emotional Experience Score: −1.5
  Change from Baseline LS Mean: NSFS Emotional Expression Score: −2.6
  Change from Baseline LS Mean: PANSS General Psychopathology Subscale: −2.8
  Change from Baseline LS Mean: PANSS Negative Symptoms Subscale: −4.2
  Change from Baseline LS Mean: PANSS Positive Symptoms Subscale: −0.3
  Change from Baseline LS Mean: PANSS Total Score: −7.1
  Effect Size (Cohen's d) vs Placebo: Marder's Anxiety/Depression Factor Score: 0.05
  Effect Size (Cohen's d) vs Placebo: Marder's Disorganized Thought Factor Score: 0.15
  Effect Size (Cohen's d) vs Placebo: Marder's Positive Symptoms Factor Score: 0.14
  Effect Size (Cohen's d) vs Placebo: Marder's Uncontrolled Hostility/Excitement Factor Score: −0.05
  Effect Size (Cohen's d) vs Placebo: NSFS (ITT): 0.13
  Effect Size (Cohen's d) vs Placebo: NSFS Emotional Experience Score: 0.11
  Effect Size (Cohen's d) vs Placebo: NSFS Emotional Expression Score: 0.17
  Effect Size (Cohen's d) vs Placebo: PANSS General Psychopathology Subscale: 0.22
  Effect Size (Cohen's d) vs Placebo: PANSS Negative Symptoms Subscale: 0.10
  Effect Size (Cohen's d) vs Placebo: PANSS Positive Symptoms Subscale: 0.04
  Effect Size (Cohen's d) vs Placebo: PANSS Total Score: 0.17
  Change from Baseline LS Mean: NSFS (mITT): −4.0
  Effect Size (Cohen's d) vs Placebo: NSFS (mITT): 0.13
[2]; 64 mg QD, Week 12 DB
  Effect Size (Cohen's w) vs Placebo: 20% reduction in NSFS responders: 0.17
  Effect Size (Cohen's w) vs Placebo: 30% reduction in NSFS responders: 0.09
  Number of Patients with 20% reduction in NSFS at Week 12: 48/122
  Number of Patients with 30% reduction in NSFS at Week 12: 24/122
  Change from Baseline LS Mean: Marder's Anxiety/Depression Factor Score: −0.7
  Change from Baseline LS Mean: Marder's Disorganized Thought Factor Score: −1.4
  Change from Baseline LS Mean: Marder's Positive Symptoms Factor Score: −1.6
  Change from Baseline LS Mean: Marder's Uncontrolled Hostility/Excitement Factor Score: 0.5
  Change from Baseline LS Mean: NSFS (ITT): −4.3
  Change from Baseline LS Mean: NSFS Emotional Experience Score: −1.8
  Change from Baseline LS Mean: NSFS Emotional Expression Score: −2.6
  Change from Baseline LS Mean: PANSS General Psychopathology Subscale: −2.3
  Change from Baseline LS Mean: PANSS Negative Symptoms Subscale: −4.7
  Change from Baseline LS Mean: PANSS Positive Symptoms Subscale: −0.4
  Change from Baseline LS Mean: PANSS Total Score: −7.4
  Effect Size (Cohen's d) vs Placebo: Marder's Anxiety/Depression Factor Score: 0.09
  Effect Size (Cohen's d) vs Placebo: Marder's Disorganized Thought Factor Score: 0.07
  Effect Size (Cohen's d) vs Placebo: Marder's Positive Symptoms Factor Score: 0.24
  Effect Size (Cohen's d) vs Placebo: Marder's Uncontrolled Hostility/Excitement Factor Score: −0.15
  Effect Size (Cohen's d) vs Placebo: NSFS (ITT): 0.21
  Effect Size (Cohen's d) vs Placebo: NSFS Emotional Experience Score: 0.28
  Effect Size (Cohen's d) vs Placebo: NSFS Emotional Expression Score: 0.17
  Effect Size (Cohen's d) vs Placebo: PANSS General Psychopathology Subscale: 0.12
  Effect Size (Cohen's d) vs Placebo: PANSS Negative Symptoms Subscale: 0.23
  Effect Size (Cohen's d) vs Placebo: PANSS Positive Symptoms Subscale: 0.07
  Effect Size (Cohen's d) vs Placebo: PANSS Total Score: 0.20
  Change from Baseline LS Mean: NSFS (mITT): −4.5
  Effect Size (Cohen's d) vs Placebo: NSFS (mITT): 0.26
[2]; US sites subgroup
  Effect size, change from Baseline in NSFS to Week 12: 0.32
[2]; non-US sites subgroup
  Effect size, change from Baseline in NSFS to Week 12: 0.20
[2]; all treatment groups, OL period to Week 52
  NSFS score, course in OL period: continued to improve
